# Measurements reported in ChEMBL document CHEMBL5053525, “Synthesis and antiviral effect of phosphamide modified vidarabine for treating HSV 1 infections” (Bioorg Med Chem Lett, 2021).
# Active and inactive are the calls of the source. The calls are words filed in the database; no cut-off is given here.
# Experiments:
# [1] = system: Human alphaherpesvirus 1; test: Antiviral activity against HSV-1 infected in human HepG2 cells assessed as inhibition of viral replication by measuring ICPO level at 10 uM pre-infected with viral particles for 2 hrs followed by compound treatment for 24 hrs by Western blot analysis; format: functional, organism-based
# [2] = system: Human alphaherpesvirus 1; test: Antiviral activity against HSV-1 infected in human Huh-7 cells assessed as inhibition of viral replication by measuring ICPO level at 10 uM pre-infected with viral particles for 2 hrs followed by compound treatment for 24 hrs by Western blot analysis; format: functional, organism-based
# [3] = system: Human alphaherpesvirus 1; test: Antiviral activity against GFP-expressing HSV-1 assessed as reduction in viral growth by fluorescence assay; format: functional, organism-based
# [4] = system: Human alphaherpesvirus 1; test: Antiviral activity against HSV-1 infected in human Huh-7 cells assessed as inhibition of viral replication by measuring ICPO level; format: functional, organism-based; conditions: dose 0.1-1.6 µM
# [5] = system: Huh-7; test: Cytotoxicity against human Huh-7 cells assessed as effect on cell viability at 10 uM measured by MTT asay; format: cell-based; conditions: huh-7, 10 µM
# [6] = system: Human alphaherpesvirus 1; test: Antiviral activity against HSV-1 infected in African green monkey Vero cells assessed as inhibition of viral replication by measuring ICPO level at 10 uM pre-infected with viral particles for 2 hrs followed by compound treatment for 24 hrs by Western blot analysis; format: functional, organism-based
# [7] = system: Human alphaherpesvirus 1; test: Antiviral activity against HSV-1 infected in human Huh-7 cells assessed as reduction in plaque forming units at 1 uM measured after 48 hrs by virus titre method; format: functional
# [8] = system: Human alphaherpesvirus 1; test: Antiviral activity against HSV-1 infected in human Huh-7 cells assessed as reduction in plaque forming units at 1 uM measured after 48 hrs by virus titre method relative to NTC; format: functional
SMILES,inhibition [1],inhibition [2],further results
CSCC[C@H](N[P@](=O)(OC[C@H]1O[C@@H](n2cnc3c(N)ncnc32)[C@@H](O)[C@@H]1O)Oc1ccccc1)C(=O)OC(C)C,Active,Active,
Nc1nc2c(ncn2COC(CO)CO)c(=O)[nH]1 [GANCICLOVIR],,,EC50 [3]: < 100 nM
CC(C)C[C@H](NP(=O)(OC[C@H]1O[C@@H](n2cnc3c(N)ncnc32)[C@@H](O)[C@@H]1O)Oc1ccccc1)C(=O)OC(C)C (stereo partly specified),Active,Active,inhibition [4]: Dose-dependent effect; EC50 [3]: 1180 nM; Activity [5]: Non-Toxic; inhibition [6]: inactive
CCCCCOC(=O)Nc1ncnc2c1ncn2[C@@H]1O[C@H](CO[P@@](=O)(N[C@@H](C)C(=O)OC(C)C)Oc2ccccc2)[C@@H](O)[C@@H]1O,Active,Active,
CC(C)C[C@H](N[P@](=O)(OC[C@H]1O[C@@H](n2cnc3c(N)ncnc32)[C@@H](O)[C@@H]1O)Oc1ccccc1)C(=O)OC(C)C,Active,Active,Activity [7]: inactive; inhibition [4]: Dose-dependent effect; fold change (FC) [8]: 1000; EC50 [3]: 526 nM; Activity [5]: Non-Toxic; inhibition [6]: inactive
CC(C)OC(=O)[C@@H](N[P@](=O)(OC[C@H]1O[C@@H](n2cnc3c(N)ncnc32)[C@@H](O)[C@@H]1O)Oc1ccccc1)C(C)C,Active,Active,
CC(C)OC(=O)[C@@H](C)N[P@](=O)(OC[C@H]1O[C@@H](n2cnc3c(N)ncnc32)[C@@H](O)[C@@H]1O)Oc1ccccc1,Active,Active,
NC(=O)c1ncn([C@@H]2O[C@H](CO)[C@@H](O)[C@H]2O)n1 [RIBAVIRIN],,,Activity [7]: 100 PFU/ml
COC(=O)[C@H](NP(=O)(OC[C@H]1O[C@@H](n2cnc3c(N)ncnc32)[C@@H](O)[C@@H]1O)Oc1ccccc1)C(C)C (stereo partly specified),Active,Active,
CC(C)OC(=O)[C@@H](NP(=O)(OC[C@H]1O[C@@H](n2cnc3c(N)ncnc32)[C@@H](O)[C@@H]1O)Oc1ccccc1)C(C)C (stereo partly specified),Active,Active,
CC(C)OC(=O)[C@H](Cc1c[nH]c2ccccc12)N[P@](=O)(OC[C@H]1O[C@@H](n2cnc3c(N)ncnc32)[C@@H](O)[C@@H]1O)Oc1ccccc1,Active,Active,
CC(C)OC(=O)[C@H](Cc1ccccc1)N[P@](=O)(OC[C@H]1O[C@@H](n2cnc3c(N)ncnc32)[C@@H](O)[C@@H]1O)Oc1ccccc1,Active,Active,inhibition [4]: Dose-dependent effect; EC50 [3]: 1060 nM; Activity [5]: Non-Toxic; inhibition [6]: inactive
CC(C)OC(=O)[C@H](C)N[P@](=O)(OC[C@H]1O[C@@H](n2cnc3c(N)ncnc32)[C@@H](O)[C@@H]1O)Oc1ccccc1,Active,Active,
CC(C)OC(=O)[C@H](C)NP(=O)(OC[C@H]1O[C@@H](n2cnc3c(N)ncnc32)[C@@H](O)[C@@H]1O)Oc1ccccc1 (stereo partly specified),Active,Active,
CC(C)OC(=O)CN[P@](=O)(OC[C@H]1O[C@@H](n2cnc3c(N)ncnc32)[C@@H](O)[C@@H]1O)Oc1ccccc1,Active,Active,
CSCC[C@H](NP(=O)(OC[C@H]1O[C@@H](n2cnc3c(N)ncnc32)[C@@H](O)[C@@H]1O)Oc1ccccc1)C(=O)OC(C)C (stereo partly specified),Active,Active,
COC(=O)[C@@H](NP(=O)(OC[C@H]1O[C@@H](n2cnc3c(N)ncnc32)[C@@H](O)[C@@H]1O)Oc1ccccc1)C(C)C (stereo partly specified),Active,Active,
